For 35 molecules, melting point results are on record in patent publication US20160297763A1, “Heteroaryl hydroxamic acid derivatives and their use in the treatment, amelioration or prevention of a viral disease” (priority 2011, published 2016).

Some results are limits rather than exact numbers.

For orientation: melting point means the temperature, or range, at which the solid turns liquid. `O=C(c1cc(-c2ccc(Cl)c(Cl)c2)ccn1)N(O)Cc1ccccc1` came in with a melting point of 125 to 130 °C.

For `Cc1c(-c2ccccc2)sc2nc(NCCN3CCOCC3)[nH]c(=O)c12`, the melting point was 240 to 246 °C.

In turn, `Cc1c(-c2ccnc(C(F)(F)F)c2)sc2nc(N)[nH]c(=O)c12` came in with a melting point of 335 to 355 °C.

Consider `Cc1c(-c2ccc(F)c(C#N)c2)sc2nc(N)[nH]c(=O)c12`, for which the melting point was in the range of 330 to 350 °C.

Molecule `Cl.O=C(NO)c1cc(NS(=O)(=O)Cc2cccc(F)c2)ccn1` showed a melting point of 195 to 200 °C.

Regarding `Cc1c(-c2ccc(F)c(C(F)(F)F)c2)sc2nc(N)[nH]c(=O)c12`, the melting point was in the range of 310 to 330 °C.

`CC(C)(C)OC(=O)N1CCC=C(c2ccnc(C(=O)N(O)Cc3ccccc3)c2)C1` gave a melting point of 128 to 134 °C.

Molecule `CC(C)(C)OC(=O)NC1CCN(c2ccnc(C(=O)N(O)Cc3ccccc3)c2)CC1` registered a melting point of 135 to 140 °C.

With `O=C(c1cc(N2CCC3(CC2)OCCO3)ccn1)N(O)Cc1ccccc1`, the melting point lay within 98 to 102 °C.

As for `O=C(c1cc(C2=CCCCC2)ccn1)N(O)Cc1ccccc1`, the melting point lay within 118 to 122 °C.

In the case of `O=C(c1cc(-c2ccc(Cl)cc2)ccn1)N(O)Cc1ccccc1`, the melting point fell in the range of 190 to 195 °C.

`Cl.O=C(NO)c1cc(NS(=O)(=O)Cc2ccccc2F)ccn1` showed a melting point of 209 to 216 °C.

Take `O=C(c1cc(N2CCCCC2)ccn1)N(O)CCCc1ccccc1`: the melting point is 125 to 130 °C.

As to `NC(=O)c1cccc(-c2ccnc(C(=O)N(O)Cc3ccccc3)c2)c1`, the melting point lay in the range of 158 to 162 °C.

Molecule `CN(OCc1ccccc1)C(=O)c1cc2ccccc2cn1` yielded a melting point of 70 to 75 °C.

Consider `Cc1c(-c2cccc(CN(C)C)c2)sc2nc(N)[nH]c(=O)c12`, for which the melting point was 207 to 212 °C.

Take `Cc1c(-c2ccccc2)sc2nc(NCCNC(=O)CCN3CCN(C)CC3)[nH]c(=O)c12`: the melting point lay within 235 to 245 °C.

Consider `O=C(c1cc(C2=CC3CCC(C2)N3)ccn1)N(O)Cc1ccccc1` (centres unmarked), for which the melting point was 95 to 100 °C.

`O=C(NOCc1ccccc1)c1ccc(-c2ccccc2)cn1` showed a melting point of 155 to 160 °C.

In turn, `O=C(c1cc(NS(=O)(=O)c2ccccc2)ccn1)N(O)Cc1ccccc1` gave a melting point of 175 to 180 °C.

As to `Cl.O=C(NO)c1cc(NS(=O)(=O)Cc2ccccc2Cl)ccn1`, the melting point was in the range of 215 to 220 °C.

In the case of `O=C(NO)c1cc2ccccc2cn1`, the melting point lay within 160 to 165 °C.

`O=C(NOCc1ccccc1)c1cc(N2CCCCC2)ccn1` had a melting point of 135 to 140 °C.

Regarding `Cc1c(-c2ccccc2)sc2nc(NCCCO)[nH]c(=O)c12`, the melting point lay within 227 to 229 °C.

With `O=C(Nc1ccnc(C(=O)NO)c1)c1ccccc1`, the melting point lay within 175 to 184 °C.

For `O=C(NOCc1ccccc1)c1ccc(N2CCCC2)cn1`, the melting point is 165 to 170 °C.

`Cl.O=C(c1cc(N2CCC(F)(F)C2)ccn1)N(O)Cc1ccccc1` came in with a melting point of 162 to 166 °C.

Consider `O=C(NOC(=O)c1cc(N2CCCCC2)ccn1)c1cc(N2CCCCC2)ccn1`, for which the melting point fell in the range of 210 to 215 °C.

As to `O=C(c1cc(C2CCCCC2)ccn1)N(O)Cc1ccccc1`, the melting point was 106 to 110 °C.

`Cl.O=C(c1cc(NS(=O)(=O)Cc2cccc(C(F)(F)F)c2)ccn1)N(O)Cc1ccccc1`: the melting point lay in the range of 178 to 182 °C.

As for `Cc1c(-c2ccc(Cl)c(C#N)c2)sc2nc(N)[nH]c(=O)c12`, the melting point is greater than 360 °C.

In the case of `NC(=O)c1ccc(-c2ccnc(C(=O)N(O)Cc3ccccc3)c2)cc1`, the melting point was 155 to 160 °C.

As for `Cc1c(-c2ccccc2)sc2nc(NCCN)[nH]c(=O)c12`, the melting point was 192 to 194 °C.

`CCONC(=O)c1cc(N)ccn1.Cl` (hydrate or solvate) yielded a melting point of 114 to 120 °C.

Regarding `Cc1c(-c2cnccn2)sc2nc(N)[nH]c(=O)c12`, the melting point is 280 to 300 °C.
